Results on 14 compounds are retold here after US6686462B2 (The Regents of the University of California, priority 1997, dated 2004).

Several values for one entry are separate records, joined by “and”; a condition that tells them apart may be missing. Equal entries are not always repeated. Structures can show the parent of a compound that is named as a salt. Where two headings read alike, the source gives them in different places.

Data set [1] is described as follows: Toxicity in HT4-6C cells by visual grading of cell morphology. The note with it: human. How it is done:
(§1) Selected compounds of the invention and PFA were tested for activity in HT4-6C cell by procedures disclosed in B. A. Larder et al., Science, 243:1731-1734 (1989). […] The TC50 values were determined using the following visual grading scale after 3 days to exposure to the tested drug compound: 4—normal appearance; 3—slight reduction of normal cells; 2-50% of cells appear normal; 1—sparse number of normal appearing cells; 0—no living cells. Values reported in the Table below are mean ±standard deviation.

Data set [2] relates to HIV-1. The settings on record: for reduction of the number of viral plaques: at 1 μM, the highest concentration achievable in the growth medium.
From the text: (§2) (EC50 is concentration to reduce HIV plaques by 50% and expressed as mean ±standard deviation).
In data set [3] the test system is HIV-1LAI. Briefly: HIV plaque reduction assay, wild-type strain. The settings on record: Human immunodeficiency virus 1. It is filed as cell-based. For orientation: In a plaque reduction assay, fewer plaques than in the control indicate reduced infectivity or spread.
Method: (§3) Compounds of the invention were tested in a plaque-forming assay of HIV-1 proliferation in a human CD4+lymphocytic cell line (HT-4) by the procedures described in K. Y. Hostetler et al., J. Biol. Chem., 265:6112-6117 (1990); and K. Y. Hostetler et al., J. Biol. Chem., 266:11714-11717 (1991). […] (EC50 is concentration to reduce HIV plaques by 50% and expressed as mean ±standard deviation).
(§4) The assays were conducted by procedures of Example 27 above and as disclosed in K. Y. Hostetler et al., J. Biol. Chem., 265:6112-6117 (1990); and K. Y. Hostetler et al., J. Biol. Chem., 266:11714-11717 (1991).
In data set [4] the test system is LAI-E89K. Kind of data set: HIV plaque reduction assay, PFA-resistant strain. Type of data set: cell-based, HIV-1.
Method: as §3, §4
For data set [5], the system named is A018-post. Kind of data set: HIV plaque reduction assay, AZT-resistant strain. Type of data set: cell-based, HIV-1. The note with it: Human immunodeficiency virus 1.
Method: as §3, §4
Data set [6] deals with HT4-6C cells. Briefly: Toxicity in HT4-6C cells by visual grading of cell morphology. The note with it: for Selectivity Index: TC50/EC50, HT4-6C cells. On the procedure: as §1
In data set [7] the test system is human T-Lymphoblastic Leukemia Cells (CEM cells). Briefly: Toxicity in CEM cells by propidium iodide staining and flow cytometry. Type of data set: cell-based. The note with it: for Selectivity Index: TC50 in CEM cells / EC50; for CC50: rapidly dividing CEM cells, viable cell numbers, read-out: TC50 (the source's name). On the procedure:
TC50 values were also assessed by exposing rapidly dividing human T-Lymphoblastic Leukemia Cells (CEM cells) to selected compounds of the invention and PFA. Viable cell numbers were determined by propidium iodide staining and fluorescent flow cytometry according to procedures disclosed in Dangl et al., Cytometry, 2:395-401 (1982).
Background: Flow cytometry measures light scatter and fluorescence of single cells or particles in a stream.

For data set [8], the system named is HIV-1. Briefly: microbe, parasite or virus in culture. The settings on record: for EC50: Human immunodeficiency virus 1, read-out: EC50(HIV-1).
From the text: as §2
The subject of data set [9] is A018-post. The settings on record: AZT-resistant, AZT data from Larder et al., Science 1989; cited from earlier work.

Regarding `CCCCCCCCCCCCCCCCCCOC(=O)P(=O)(O)OC` [Example 8, Sodium Methyl 1-octadecyloxycarbonylphosphonate], the CC50 at 3 days in data set [1] was 10 µM. In [2] (HT-4 cells), the “reduction of the number of viral plaques” value worked out at 35%.

For the compound `CCCCCCCCCCCCCCCCCCCCOC(=O)P(=O)(O)OC` [Example 9, Sodium Methyl 1-eicosanyloxycarbonylphosphonate], the CC50 at 3 days in data set [1] is 10 µM. In addition, the “reduction of the number of viral plaques” value in [2] (HT-4 cells) stood at 35%.

What is called melting point is the temperature of the solid-liquid transition. Turning to `CCCCCCCCCCCCCCCCCCOC(=O)O[PH](=O)OC[C@H]1O[C@@H](n2cc(C)c(=O)[nH]c2=O)C[C@@H]1N=[N+]=[N-]` (some centres unmarked) [Example 20, 3′-azido-3′-deoxy-5′-O-(1-octadecyloxycarbonyloxyphosphinyl)thymidine], the melting point is 224 °C (dec.).

Compound `CCCCCCCCCCCCCCCCCCCCOC(=O)P(=O)(O)OC` (as salt: sodium) [Example 9, Sodium Methyl 1-eicosanyloxycarbonylphosphonate] yielded a melting point of 95 to 96 °C.

A word on the EC50: it is the concentration giving half of the maximal effect. Turning to `CCCCCCCCCCCCCCCCCCOC(=O)P(=O)(O)OC[C@H]1O[C@@H](n2cc(C)c(=O)[nH]c2=O)C[C@@H]1N=[N+]=[N-]` [Example 20], the EC50 in data set [3] was determined as 0.1 ± 0.15 µM; in data set [4] (Human immunodeficiency virus 1), 0.13 ± 0.14 µM; in data set [5] it was 0.3 ± 0.32 µM. In [1], this compound registered a CC50 at 3 days of 10 µM. In addition, the “Selectivity Index” value in [6] turned out to be 100; in data set [7], 280. Also, in [7], the CC50 worked out at 28 µM.

For the compound `CCCCCCCCCCCCCCCCCCCCCCOC(=O)O[PH](=O)OC[C@H]1O[C@@H](n2cc(C)c(=O)[nH]c2=O)C[C@@H]1N=[N+]=[N-]` (some centres unmarked) [Example 22, 3′-Azido-3′-deoxy-5′-O-(1-docosanyloxycarbonyloxyphosphinyl) thymidine], the melting point was 238 °C (dec.).

`CCCCCCCCCCCCCCCCCCCCOC(=O)P(=O)(O)OC[C@H]1O[C@@H](n2cc(C)c(=O)[nH]c2=O)C[C@@H]1N=[N+]=[N-]` [Example 21]: the EC50 in data set [3] was found to be 0.14 ± 0.16 µM; in [4] (Human immunodeficiency virus 1) it was 0.009 ± 0.007 µM; in data set [5] it was 0.53 ± 0.68 µM; in data set [8] it was 0.05 µM. For the same compound, the CC50 at 3 days in data set [1] was 32 µM. For the same compound, the “Selectivity Index” value worked out at 228 in [6] and 257 in [7]. Further, the cytotoxicity entry in data set [6] (at 0.1-1.0 μM) is listed as “slight to moderate”; in data set [6] (at 10 and 100 μM), “significant”. For the same compound, in data set [6] (toxic concentration over EC50(HIV-1)), the therapeutic selectivity result was “ca. 200”. For the same compound, the CC50 in data set [7] was found to be 36 µM. Also, in data set [2] (EC50(HIV-1) compared with AZT), the “fold less active than AZT” value is recorded as 7 fold. Further, the “times more active than PFA” value in [2] (EC50(HIV-1) compared with PFA) is on record as 2,800 times.

For orientation: IC50 means the concentration needed to halve the response being measured. `O=C(O)P(=O)(O)O` [PFA, phosphonoformic acid, reference compound]: the results for the EC50 in [3], in data set [4] (Human immunodeficiency virus 1) and in data set [5] were 133 ± 54 µM, more than 1000 µM and 65 ± 13 µM, respectively. Moreover, the IC50 in data set [8] (Human immunodeficiency virus 1, read-out: IC50 (HIV-1)) turned out to be 133 µM.

For `CCCCCCCCCCCCCCCCCCCCOC(=O)O[PH](=O)OC[C@H]1O[C@@H](n2cc(C)c(=O)[nH]c2=O)C[C@@H]1N=[N+]=[N-]` (some centres unmarked) [Example 21], the melting point is 230 °C (dec.).

As to `Cc1cn([C@H]2C[C@H](N=[N+]=[N-])[C@@H](CO)O2)c(=O)[nH]c1=O` [AZT, 3′-azido-3′-deoxythymidine], the concentration giving a half-maximal response (EC50) in data set [3] was 0.013 ± 0.006 µM; in [4] (Human immunodeficiency virus 1), 0.009 ± 0.005 µM; in data set [9] it was 4 µM and 2.3 µM; in data set [8] it was 0.007 µM.

Take `CCCCCCCCCCCCCCCCOCCCOP(=O)(O)C(=O)OC[C@H]1O[C@@H](n2cc(C)c(=O)[nH]c2=O)C[C@@H]1N=[N+]=[N-]` [Example 25]: the EC50 in data set [4] (LAI-E89K, PFA-resistant, mean ± SD of 3 experiments, Example 25: single test value, read-out: EC50) worked out at 1.3 µM. Moreover, the CC50 in [7] is 65 µM.

For the compound `CCCCCCCCCCCCCCCCCCOC(=O)P(=O)(O)OC` (as salt: sodium) [Example 8, Sodium Methyl 1-octadecyloxycarbonylphosphonate], the melting point lay within 92 to 93 °C.

Regarding `Cc1cn([C@H]2C[C@H](N=[N+]=[N-])[C@@H](COP(=O)(O)C(=O)O[C@H]3CC[C@@]4(C)C(=CC[C@H]5[C@@H]6CC[C@H]([C@H](C)CCCC(C)C)[C@@]6(C)CC[C@@H]54)C3)O2)c(=O)[nH]c1=O` [Example 23], in [2] (read-out: IC50 (HIV-1), plaque-forming assay, HT-4 cells), the IC50 was 0.25 µM.

`CCCCCCCCCCCCCCCCCCCCCCOC(=O)P(=O)(O)OC[C@H]1O[C@@H](n2cc(C)c(=O)[nH]c2=O)C[C@@H]1N=[N+]=[N-]` [Example 22]: the EC50 was 0.32 ± 0.2 µM in [3], 0.17 ± 0.11 µM in [4] (Human immunodeficiency virus 1) and 0.77 ± 1.1 µM in [5]. The compound further displayed a CC50 at 3 days in data set [1] of 320 µM. Besides, the figures for the “Selectivity Index” value in [6] and in data set [7] were 1000 and 291, respectively. Further, the CC50 in data set [7] turned out to be 93 µM.
